Data: patent US10758517B2, “mPGES-1 inhibitor for the treatment of osteoarthritis pain” (Glenmark Pharmaceuticals S.A., priority 2017, dated 2020)

Columns and labels:
LPS-induced PGE2 release [1] = test: Ex vivo LPS-induced PGE2 release in whole blood, single dose crossover versus celecoxib (Example 1, Part 3); parameters: species or system human
Experimental: Part 2 was a single-dose, double-blind study in a single cohort of elderly subjects. Part 3 was an open-label, randomized, 2-period, single-dose, crossover study to compare effects of the highest tolerated Compound I dose and celecoxib on prostanoid metabolism in healthy adult subjects.
In Part 3, Compound I was administered at a dose of 1000 mg after fasting. All subjects received Compound I and all subjects received 400 mg celecoxib in a cross-over study design.
(§1) In Parts 1a and 3, whole blood samples were incubated and analyzed for lipopolysaccharide (LPS)-induced prostaglandin PGE2 release. In Part 3, urine samples were collected for analysis of prostanoid metabolites.
(§2) Summary statistics were presented for the PK, pharmacodynamic (PD) and safety data, as appropriate. PK parameters following single oral doses of Compound I were determined from the plasma concentrations of Compound I using non-compartmental procedures in WinNonlin Dose proportionality was assessed using a power model, with tmax analyzed using the Kruskal-Wallis test. The effect of food on PK was assessed at the 100 and 250 mg doses using a mixed effects model. The effect of age on PK was assessed for elderly (>65 years) versus non-elderly (<65 years) at the 250 mg dose level in Parts 1a and 2, using an analysis of variance (ANOVA) with age as a fixed effect. For PD analyses, percent decrease of ex vivo LPS-induced PGE2 release was calculated. For Part 3, urinary excretion of prostanoid metabolites was also evaluated. The data are presented as absolute, as well as creatinine normalized urinary biomarker amounts, along percent change from baseline over a definite time interval. The percent change from baseline in urinary biomarkers was assessed using an analysis of covariance (ANCOVA) model
(§3) Percent change in ex vivo LPS-induced PGE2 release in whole blood is the pharmacodynamic (PD) biomarker. The PGE2 levels in whole blood were estimated using the homogeneous time-resolved fluorescence method.
(§4) Concentrations below the limit of quantification were treated as ½ the lower limit of quantification for calculation.
Time points where unstimulated prostaglandin E2 (PGE2) concentration was more than 3 times greater than the mean unstimulated PGE2 and equal to or greater than ½ baseline value for an individual subject were not included in the calculation of % inhibition.

LPS-induced PGE2 release [2] = test: Ex vivo LPS-induced PGE2 release in whole blood, single ascending oral doses (Example 1, Part 1a); parameters: species or system human; settings: for EAUC0-24 h, Difference in LS mean versus placebo / EAUC0-24 h, LS mean / EAUC0-336 h, Difference in LS mean versus placebo / EAUC0-336 h, LS mean / ETmax (time to reach maximum effect), Median / ETmax, Median difference versus placebo / Epeak (maximum % inhibition), LS mean / Epeak, Difference in LS mean versus placebo: fasted healthy subjects
Experimental: In Part 1a, single doses of Compound I of 10 mg (Group A), 30 mg (Group B), 100 mg (Group C), 250 mg (Group D), 500 mg (Group E) and 1000 mg (Group F) were administered after fasting. In each dose group, 6 subjects received Compound I and 2 subjects received placebo.
as §1, §2, §3, §4
Time points where unstimulated PGE2 concentration was more than 3 times greater than the mean unstimulated PGE2 and equal to or greater than ½ baseline value for an individual subject were not included in the calculation of percent inhibition. If pre-dose LPS-induced PGE2 was less than unstimulated PGE2, the value was not used for calculation of percent inhibition.

[3] = Compound I 1000 mg versus celecoxib 400 mg, single oral doses, fasted
[4] = single oral dose 1000 mg, fasted healthy subjects

## CC(C)(C)C(=O)NCc1ccc(Cl)c(-c2nn(-c3ccc(C(F)(F)F)cc3)c(=O)[nH]2)c1 [Compound I, N-(4-chloro-3-(5-oxo-1-(4-(trifluoromethyl)phenyl)-4,5-dihydro-1H-1,2,4-triazol-3-yl)benzyl)pivalamide]
LPS-induced PGE2 release [1]; [3]
  EAUC0-24 h, Difference in LS mean versus celecoxib: 7.89 % · h
  EAUC0-336 h, Difference in LS mean versus celecoxib: 19024 % · h
  ETmax, Median difference versus celecoxib: 6.00 h
  Epeak, Difference in LS mean versus celecoxib: −1.87%
LPS-induced PGE2 release [1]; [4]
  EAUC0-24 h, LS mean: 1428 % · h
  EAUC0-336 h, LS mean: 8866 % · h
  ETmax (time to reach maximum effect), Median: 12.0 h
  Epeak (maximum % inhibition), LS mean: 87.2%
LPS-induced PGE2 release [1]; single oral dose 1000 mg, maintained for at least 168 hours post-dose
  inhibition of LPS-induced PGE2 concentration: approximately 50%
LPS-induced PGE2 release [2]; 1000 mg single dose
  persistence of inhibition: still apparent at 336 hours
LPS-induced PGE2 release [2]; 250 and 500 mg single doses
  time for which near maximal inhibition was retained: at least 168 hours
LPS-induced PGE2 release [2]; lower doses, post-dose
  time for which reduction in PGE2 release was apparent: approximately 24 hours
LPS-induced PGE2 release [2]; single oral dose 10 mg
  EAUC0-24 h, Difference in LS mean versus placebo: 956 % · h
  EAUC0-24 h, LS mean: 898 % · h
  EAUC0-336 h, Difference in LS mean versus placebo: −5321 % · h
  EAUC0-336 h, LS mean: −3824 % · h
  ETmax (time to reach maximum effect), Median: 4.00 h
  ETmax, Median difference versus placebo: -8.02 h
  Epeak (maximum % inhibition), LS mean: 77.7%
  Epeak, Difference in LS mean versus placebo: 9.90%
LPS-induced PGE2 release [2]; single oral dose 30 mg
  EAUC0-24 h, Difference in LS mean versus placebo: 1028 % · h
  EAUC0-24 h, LS mean: 970 % · h
  EAUC0-336 h, Difference in LS mean versus placebo: 7240 % · h
  EAUC0-336 h, LS mean: 8736 % · h
  ETmax (time to reach maximum effect), Median: 3.04 h
  ETmax, Median difference versus placebo: -8.98 h
  Epeak (maximum % inhibition), LS mean: 72.8%
  Epeak, Difference in LS mean versus placebo: 4.94%
LPS-induced PGE2 release [2]; single oral dose 100 mg
  EAUC0-24 h, Difference in LS mean versus placebo: 1709 % · h
  EAUC0-24 h, LS mean: 1650 % · h
  EAUC0-336 h, Difference in LS mean versus placebo: 10115 % · h
  EAUC0-336 h, LS mean: 11612 % · h
  ETmax (time to reach maximum effect), Median: 7.02 h
  ETmax, Median difference versus placebo: -7.50 h
  Epeak (maximum % inhibition), LS mean: 91.6%
  Epeak, Difference in LS mean versus placebo: 23.8%
LPS-induced PGE2 release [2]; single oral dose 250 mg
  EAUC0-24 h, Difference in LS mean versus placebo: 1608 % · h
  EAUC0-24 h, LS mean: 1550 % · h
  EAUC0-336 h, Difference in LS mean versus placebo: 12965 % · h
  EAUC0-336 h, LS mean: 14461 % · h
  ETmax (time to reach maximum effect), Median: 2.03 h
  ETmax, Median difference versus placebo: -9.94 h
  Epeak (maximum % inhibition), LS mean: 92.8%
  Epeak, Difference in LS mean versus placebo: 24.9%
LPS-induced PGE2 release [2]; single oral dose 500 mg
  EAUC0-24 h, Difference in LS mean versus placebo: 1766 % · h
  EAUC0-24 h, LS mean: 1707 % · h
  EAUC0-336 h, Difference in LS mean versus placebo: 16417 % · h
  EAUC0-336 h, LS mean: 17914 % · h
  ETmax (time to reach maximum effect), Median: 12.0 h
  ETmax, Median difference versus placebo: -0.0333 h
  Epeak (maximum % inhibition), LS mean: 87.7%
  Epeak, Difference in LS mean versus placebo: 19.9%
LPS-induced PGE2 release [2]; single oral dose 1000 mg
  EAUC0-24 h, Difference in LS mean versus placebo: 1086 % · h
  EAUC0-24 h, LS mean: 1028 % · h
  EAUC0-336 h, Difference in LS mean versus placebo: 17780 % · h
  EAUC0-336 h, LS mean: 19277 % · h
  ETmax (time to reach maximum effect), Median: 144 h
  ETmax, Median difference versus placebo: 112 h
  Epeak (maximum % inhibition), LS mean: 81.8%
  Epeak, Difference in LS mean versus placebo: 14.0%
LPS-induced PGE2 release [2]; single oral doses from 10 mg to 1000 mg
  inhibition of ex vivo LPS-induced PGE2 release (in words): marked dose-dependent inhibition
